Results reported in ChEMBL document CHEMBL1144363, “Human immunodeficiency virus-reverse transcriptase inhibition and hepatitis C virus RNA-dependent RNA polymerase inhibition activities of fullerene derivatives” (Bioorg Med Chem Lett, 2005).

Columns and labels:
[1] = biological target: RNA-directed RNA polymerase (Hepacivirus hominis, UniProt O39930); assay: Inhibitory concentration against Hepatitis C virus-RNA-dependent RNA polymerase
[2] = biological target: Human immunodeficiency virus type 1 reverse transcriptase (Human immunodeficiency virus 1, UniProt Q72547); assay: Inhibitory concentration against HIV-Reverse transcriptase

RNA-directed RNA polymerase, sequence (O39930 whole entry): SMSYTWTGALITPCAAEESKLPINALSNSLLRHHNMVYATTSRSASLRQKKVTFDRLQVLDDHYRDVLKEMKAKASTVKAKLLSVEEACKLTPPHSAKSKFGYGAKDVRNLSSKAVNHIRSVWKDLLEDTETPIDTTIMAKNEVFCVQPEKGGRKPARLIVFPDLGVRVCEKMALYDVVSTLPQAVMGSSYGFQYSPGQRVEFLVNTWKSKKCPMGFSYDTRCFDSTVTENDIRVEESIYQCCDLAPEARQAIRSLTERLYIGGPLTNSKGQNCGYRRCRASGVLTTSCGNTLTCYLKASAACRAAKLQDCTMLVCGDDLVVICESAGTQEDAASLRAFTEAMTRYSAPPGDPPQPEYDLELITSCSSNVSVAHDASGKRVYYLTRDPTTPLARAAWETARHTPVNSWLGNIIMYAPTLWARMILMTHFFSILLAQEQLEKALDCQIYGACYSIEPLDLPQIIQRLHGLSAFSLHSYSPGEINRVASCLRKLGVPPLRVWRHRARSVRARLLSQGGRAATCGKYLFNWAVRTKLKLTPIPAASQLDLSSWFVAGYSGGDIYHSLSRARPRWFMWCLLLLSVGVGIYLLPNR

Row | SMILES | IC50 [1] [nM] | IC50 [2] [nM]
1 | CCCCn1c(=O)c(C2=NS(=O)(=O)c3ccccc3N2)c(O)c2ccccc21 | 100 | 
2 | O=C(O)C1(C(=O)O)[C@]23c4c5c6c7c8c9c%10c%11c%12c%13c%14c%15c%16c%17c%18c%19c%20c(c2c2c4c4c6c6c8c%10c8c%12c%10c%14c(c%15%19)c%12c%20c2c2c4c6c8c%10c%122)[C@@H]%18[C@H]2c4c6c8c%10c(c4-%17)[C@@H]%16[C@H]%13[C@@]%114C(C(=O)O)(C(=O)O)[C@]%104C=9[C@H]8[C@@H]7C5=C6[C@@]213 | 3200 | 1200
3 | O=C(O)CN1C[C@@]23C4=C5c6c7c8c9c(c%10c%11c%12c%13c%14c%15c%16c%17c%18c%19c%20c%21c%22c%23c(c6c6c8c8c%24c9c%11c9c(c%16%12)c%17c%11c%19c%12c%21c%23c6c8c%12c%11c9%24)[C@@H]5[C@@H]5C=%22[C@H]6c8c(c-%14c(c4c85)[C@@H]2[C@H]%13%10)[C@H]%15[C@@H]%18[C@@H]%206)[C@]73[C@@H]1C(=O)O | > 10000 | 1000

Next, values leading:

Row | IC50 [1] [nM] | IC50 [2] [nM] | SMILES
4 | 310 | 1400 | C[N+]1(C)C[C@]23c4c5c6c7c8c9c%10c%11c%12c%13c%14c%15c%16c%17c%18c%19c%20c(c2c2c4c4c6c6c8c%10c8c%12c%10c%14c(c%15%19)c%12c%20c2c2c4c6c8c%10c%122)[C@@H]%18[C@H]2c4c6c8c%10c(c4-%17)[C@@H]%16[C@H]%13[C@@]%114C[N+](C)(C)C[C@]%104C=9[C@H]8[C@@H]7C5=C6[C@]23C1
5 | 1400 | 1300 | CCCCCCCCCC[N@+]1(C)C[C@@]23c4c5c6c7c8c9c%10c%11c%12c%13c%14c%15c%16c%17c%18c%19c%20c%21c(c2c2c4c4c6c9c6c4c4c2c%21c2c%19c(c%18%14)c9c%13c%10c6c9c24)C2=C4c6c(c-%16c9c%10c6[C@H]([C@@H]5C7=C%10[C@]5(C[N+](C)(C)C[C@]8%115)[C@H]9[C@H]%15%12)[C@@]43C1)[C@@H]%17[C@H]2%20
6 | 310 | 1700 | C[N+]1(C)C[C@]23c4c5c6c7c8c9c%10c%11c%12c%13c%14c%15c%16c%17c%18c%19c%20c%21c(c2c2c4c4c6c9c6c4c4c2c%21c2c(c%16%20)c%15c9c%13c%10c6c9c24)[C@@H]%19[C@H]2c4c6c9c%10c(c4-%18)[C@@H]%17[C@@H]%14C%12=C%10[C@]4(C[N+](C)(C)C[C@@]8%114)[C@H]9[C@@H]7C5=C6[C@]23C1
7 | 240 | 1600 | C[N+]1(C)C[C@@]23C4=C5C6=C7c8c9c%10c%11c%12c%13c%14c%15c%16c%17c%18c%19c%20c%21c%22c%23c%24c%25c%26c%27c(c(c8c8c%10c%13c(c%278)c8c%14c%17c(c%24c%22%18)c%268)[C@@]72C1)[C@H]%25[C@@H]3C=%23[C@@H]4[C@H]%21c1c5c2c3c(c1-%20)[C@H]([C@H]%19%16)[C@@]1(C[N+](C)(C)C[C@]%12%151)C3=C%11[C@H]9[C@H]62
